Experimental data published in patent publication US20230146233A1, “A CLASS OF POLYCYCLIC COMPOUNDS INHIBITING RNA HELICASE DHX33 AND THE APPLICATION THEREOF” (Shenzhen KeYe Life Technologies, Co., Ltd, priority 2020, published 2023).

test system: U251-MG cells; experiment: Half-maximal cell-inhibitory concentration on U251-MG cells (CCK-8); format: cell-based; details: Homo sapiens, U-251, U251-MG cells (DHX33-overexpressing cancer cell strain), 48 hours, read-out: IC50 (half-maximal inhibitory concentrations of compounds on U251-MG cells)
Procedure: U251-MG cells were purchased from the cell bank of the Chinese Academy of Sciences. Cells were cultured in MEM medium containing 10% fetal bovine serum (FBS), 2 mM L-glutammie, streptomycmn and penicillin. The growth conditions were set as follows: a humidified cell incubator (37° C., 5% CO2). Cells were passaged every 3 days and were discarded after 10 passages.
U251-MG cells (a […]-overexpressing cancer cell strain) were seeded on a 96-well plate at 1×10^4 cells/100 μl/well. After the cells were completely attached, the compounds were added to the cell culture medium at a concentration of 5 nM, 10 nM, 25 nM, 50 nM, 100 nM, […], 500 nM, 1000 nM, 2000 nM, […] or 20 μM, and the resulting mixture was uniformly mixed with a multichannel pipette. After the cells were incubated with the compound for 48 hours, CCK-8 reagent (Yeasen Biotechnology (Shanghai) Co., Ltd.) was added to the medium in the 96-well plate in accordance with the standard procedure. After being incubated for 2 hours, the plate was read with a microplate reader (OD=450 nm). The experiment was repeated three times, the inhibition curve of the compound at different concentrations was plotted, and the half-maximal inhibitory concentration (IC50) of the compound was calculated.

Row | IC50 [µM] | Structure (SMILES)
1 | 5 to 20 | Cc1cc(/C=C(\C#N)c2nc3ccccc3[nH]2)c(C)n1-c1cccs1 [AB24233]
2 | < 0.1 | COc1cc2nc(/C(C#N)=C/c3cc(C)n(-c4sc(Cl)cc4C#N)c3C)[nH]c2cn1 [AB24349]
3 | < 0.1 | COc1cc2nc(/C(C#N)=C/c3cc(C)n(Cc4ccccc4)c3C)[nH]c2cn1 [AB24398, (E)-3-(1-benzyl-2,5-dimethyl-1H-pyrrol-3-yl)-2-(6-methoxy-3H-imidazo[4,5-c]pyridin-2-yl)acrylonitrile]
4 | 5 to 20 | Cc1oc(-n2c(C)cc(/C=C(\C#N)c3nc4ccc(N)cc4[nH]3)c2C)c(C#N)c1C [AB24221, (E)-2-(3-(2-(6-amino-1H-benzo[d]imidazol-2-yl)-2-cyanovinyl)-2,5-dimethyl-1H-pyrrol-1-yl)-4,5-dimethylfiran-3-carbonitrile]
5 | 1 to 5 | COc1cc2nc(/C(C#N)=C/c3cc(C)n(-c4sc(-c5cccnc5)cc4C#N)c3C)[nH]c2cn1 [AB24337]
6 | 5 to 20 | Cc1ccc(-n2c(C)cc(/C=C(\C#N)c3nc4ccccc4[nH]3)c2C)cc1 [AB24237]
7 | 1 to 5 | Cc1oc(-n2c(C)cc(/C=C(\C#N)c3nc4cc(Cl)cc(Cl)c4[nH]3)c2C)c(C#N)c1C [AB24239]
8 | 0.1 to 1 | COc1cc2nc(/C(C#N)=C/c3cc(C)n(-c4sc(C)cc4C(N)=O)c3C)[nH]c2cn1 [AB24313, (E)-2-(3-(2-cyano-2-(6-methoxy-3H-imidazo[4,5-c]pyridin-2-yl)vinyl)-2,5-dimethyl-1H-pyrrol-1-yl)-5-methylthiophene-3-carboxamide]
9 | 1 to 5 | COc1cc2nc(/C(C#N)=C/c3cc(C)n(-c4oc(C)c(C)c4C#N)c3C)[nH]c2cc1OC [AB24229, (E)-2-(3-(2-cyano-2-(5,6-dimethoxy-1H-benzo[d]imidazol-2-yl)vinyl)-2,5-dimethyl-H-pyrrol-1-yl)-4,5-dimethylfuran-3-carbonitrile]
10 | < 0.1 | COc1cc2nc(/C(C#N)=C/c3cc(C)n(Cc4ccccn4)c3C)[nH]c2cn1 [AB29507, (E)-3-(2,5-dimethyl-1-(pyridin-2-ylmethyl)-1H-pyrrol-3-yl)-2-(6-methoxy-3H-imidazo[4,5-c]pyridin-2-yl)acrylonitrile]
11 | 5 to 20 | CC(=O)Nc1ccc(-n2c(C)cc(/C=C(\C#N)c3nc4ccccc4[nH]3)c2C)cc1 [AB24267]
12 | 0.1 to 1 | COc1cc2cc(/C(C#N)=C/c3cc(C)n(-c4sc(C)cc4C#N)c3C)[nH]c2cn1 [AB24342, (Z)-2-(3-(2-cyano-2-(5-methoxy-1H-pyrrolo[2,3-c]pyridin-2-yl)vinyl)-2,5-dimethyl-1H-pyrrol-1-yl)-5-methylthiophene-3-carbonitrile]
13 | 5 to 20 | Cc1nn(-c2cccc(C(F)(F)F)c2)c(C)c1/C=C(\C#N)c1nc2ccccc2[nH]1 [AB24285, (E)-2-(1H-benzo[d]imidazol-2-yl)-3-(3,5-dimethyl-1-(3-(trifluoromethyl)phenyl)-1H-pyrazol-4-yl)acrylonitrile]
14 | 5 to 20 | COc1ccc2nc(NC(=O)c3cc(C)n(Cc4cnn(C)c4)c3C)[nH]c2c1 [AB29513, N-(6-methoxy-1H-benzo[d]imidazol-2-yl)-2,5-dimethyl-1-((1-methyl-1H-pyrazol-4-yl)methyl)-1H-pyrrole-3-carboxamide]
15 | < 0.1 | CCc1cc(C#N)c(-n2c(C)cc(/C=C(\C#N)c3nc4cc(OC)ncc4[nH]3)c2C)s1 [AB24317, (E)-2-(3-(2-cyano-2-(6-methoxy-3H-imidazo[4,5-c]pyridin-2-yl)vinyl)-2,5-dimethyl-1H-pyrrol-1-yl)-5-ethylthiophene-3-carbonitrile]
16 | 1 to 5 | Cc1ccc2nc(/C(C#N)=C/c3cc(C)n(-c4oc(C)c(C)c4C#N)c3C)[nH]c2c1 [AB24203, (E)-2-(3-(2-cyano-2-(6-methyl-1H-benzo[d]imidazol-2-yl]vinyl)-2,5-dimethyl-1H-pyrrol-1-yl)-4,5-dimethylfuran-3-carbonitrile]
17 | 5 to 20 | Cc1cc(/C=C(\C#N)c2nc3ccccc3[nH]2)c(C)n1-c1ccccc1C#N [AB24227]
18 | 1 to 5 | COc1cc2nc(/C(C#N)=C/c3cc(C)n(-c4ccncc4Cl)c3C)[nH]c2cn1 [AB24289, (E)-3-(1-(3-chloropyridin-4-yl)-2,5-dimethyl-1H-pyrrol-3-yl)-2-(6-methoxy-3H-imidazo[4,5-c]pyridin-2-yl)acryonitrile]
19 | 5 to 20 | Cc1cc(/C=C(\C#N)c2nc3ccccc3[nH]2)c(C)n1-c1ccc(C#N)cc1 [AB24223]
20 | 5 to 20 | CCOC(=O)c1ccc2nc(/C(C#N)=C/c3cc(C)n(-c4oc(C)c(C)c4C#N)c3C)[nH]c2c1 [AB24208, ethyl (E)-2-(1-cyano-2-(1-(3-cyano-4,5-dimethylfuran-2-yl)-2,5-dimethyl-1H-pyrrol-3-yl)vinyl)-1H-benzo[d]imidazole-6-carboxylate]
21 | < 0.1 | COc1cc2nc(/C(C#N)=C/c3cc(C)n(Cc4ccco4)c3C)[nH]c2cn1 [AB24397, (E)-3-(1-(furan-2-ylmethyl)-2,5-dimethyl-1H-pyrrol-3-yl)-2-(6-methoxy-3H-imidazo[4,5-c]pyridin-2-yl)acrylonitrile]
22 | 1 to 5 | COc1cc2nc(/C(C#N)=C/c3cc(C)n(-c4ccncc4C)c3C)[nH]c2cn1 [AB24295, (E)-3-(2,5-dimethyl-1-(3-methylpyridin-4-yl)-1H-pyrrol-3-yl)-2-(6-methoxy-3H-imidazo[4,5-c]pyridin-2-yl)acrylonitrile]
23 | < 0.1 | COc1cnc2[nH]c(/C(C#N)=C/c3cc(C)n(-c4sc(C)cc4C#N)c3C)nc2c1 [AB24333, (E)-2-(3-(2-cyano-2-(6-methoxy-3H-imidazo[4,5-b]pyridin-2-yl)vinyl)-2,5-dimethyl-1H-pyrrol-1-yl)-5-methylthiophene-3-carbonitrile]
24 | 0.1 to 1 | COc1cc2nc(/C(C#N)=C/c3cnn(-c4sc(C)cc4C#N)c3C)[nH]c2cn1 [AB24334, (E)-2-(4-(2-cyano-2-(6-methoxy-3H-imidazo[4,5-c]pyridin-2-yl)vinyl)-5-methyl-1H-pyrazol-1-yl)-5-methylthiophene-3-carbonitrile]
25 | < 0.1 | COc1cc2nc(/C(C#N)=C/c3cc(C)n(Cc4ccncc4)c3C)[nH]c2cn1 [AB29512, (E)-3-(2,5-dimethyl-1-(pyridin-4-ylmethyl)-1H-pyrrol-3-yl)-2-(6-methoxy-3H-imidazo[4,5-c]pyridin-2-yl)acrylonitrile]
26 | 1 to 5 | COc1cncc2nc(/C(C#N)=C/c3cc(C)n(-c4sc(C)c(C)c4C#N)c3C)[nH]c12 [AB24302, (E)-2-(3-(2-cyano-2-(7-methoxy-1H-imidazo[4,5-c]pyridyl-2-yl)vinyl)-2,5-dimethyl-1H-pyrrol-1-yl)-4,5-dimethylthiophene-3-carbonitrile]
27 | 0.1 to 1 | COc1ccc2nc(NC(=O)c3cc(C)n(-c4oc(C)c(C)c4C#N)c3C)[nH]c2c1 [AB29510, 1-(3-cyano-4,5-dimethylfuran-2-yl)-N-(6-methoxy-1H-benzo[d]imidazol-2-yl)-2,5-dimethyl-1H-pyrrole-3-carboxamide]
28 | 1 to 5 | COc1cc2nc(/C(C#N)=C/c3cc(C)n(-c4ccncc4F)c3C)[nH]c2cn1 [AB24300, (E)-3-(1-(3-fluoropyridin-4-yl)-2,5-dimethyl-1H-pyrrol-3-yl)-2-(6-methoxy-3H-imidazo[4,5-c]pyridin-2-yl)acrylonitrile]
